Data taken from patent US8202856B2 (Merck Serono SA, priority 2007, dated 2012).

Experiments:
S1P3 receptor = S1P3 receptor (Homo sapiens, UniProt Q99500); experiment: 35S-GTPγS binding, membranes from CHO cells expressing S1P3; assay type: biochemical; conditions: CHO cell membranes expressing S1P3
Procedure, shortened: (§1)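 Membranes (1–10 μg) from CHO cells expressing the receptor were incubated with compound in 20 mM HEPES pH 7.4, 10 mM MgCl2, 140 mM NaCl, 1.7 μM GDP, saponin and 0.2% BSA. [35S]GTPγS (added at 1.5 nM) was then bound for 60 min at 30 °C. Membrane-bound radioactivity, averaged over triplicates, is expressed relative to S1P activation (n=2).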

S1P1 receptor = S1P1 receptor (Homo sapiens, UniProt P21453); experiment: 35S-GTPγS binding, membranes from CHO cells expressing S1P1; assay type: biochemical; conditions: CHO cell membranes expressing S1P1
Procedure, shortened: as §1

S1P1 receptor, sequence (P21453 whole entry): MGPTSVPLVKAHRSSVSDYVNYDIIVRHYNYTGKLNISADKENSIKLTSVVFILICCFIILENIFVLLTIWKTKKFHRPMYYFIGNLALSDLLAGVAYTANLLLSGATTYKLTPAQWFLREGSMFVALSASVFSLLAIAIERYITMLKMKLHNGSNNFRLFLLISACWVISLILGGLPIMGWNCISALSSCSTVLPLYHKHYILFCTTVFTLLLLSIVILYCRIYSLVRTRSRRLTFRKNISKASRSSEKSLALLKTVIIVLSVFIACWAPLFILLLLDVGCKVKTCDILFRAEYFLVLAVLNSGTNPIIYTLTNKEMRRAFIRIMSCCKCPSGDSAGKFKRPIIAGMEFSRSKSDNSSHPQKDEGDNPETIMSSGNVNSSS
S1P3 receptor, sequence (Q99500 whole entry): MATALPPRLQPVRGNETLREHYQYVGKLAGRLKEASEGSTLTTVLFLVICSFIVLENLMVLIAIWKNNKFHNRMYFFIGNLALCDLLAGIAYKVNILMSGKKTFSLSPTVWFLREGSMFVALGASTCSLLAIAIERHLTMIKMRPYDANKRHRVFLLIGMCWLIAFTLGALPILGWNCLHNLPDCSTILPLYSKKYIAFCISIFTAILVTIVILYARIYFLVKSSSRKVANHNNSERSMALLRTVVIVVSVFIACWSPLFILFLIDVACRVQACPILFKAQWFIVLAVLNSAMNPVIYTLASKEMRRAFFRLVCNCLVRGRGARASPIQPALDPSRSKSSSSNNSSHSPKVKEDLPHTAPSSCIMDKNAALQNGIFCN

Row | EC50 (S1P3 receptor) [nM] | EC50 (S1P1 receptor) [nM] | SMILES
1 | > 20000 | 13 | Cc1ccccc1-c1noc(-c2nnn(-c3ccccc3F)c2-c2ccncc2)n1 [Example 121, 4-{1-(2-fluorophenyl)-4-[3-(2-methylphenyl)-1,2,4-oxadiazol-5-yl]-1H-1,2,3-triazol-5-yl}pyridine]
2 | 318 | 1 | O=C(O)CCNCc1ccc(-c2noc(-c3nnn(-c4ccccc4F)c3-c3ccncc3)n2)cc1 [Example 127, N-(4-{5-[1-(2-fluorophenyl)-5-pyridin-4-yl-1H-1,2,3-triazol-4-yl]-1,2,4-oxadiazol-3-yl}benzyl)-beta-alanine]
3 | 2530 | 8 | O=C(O)C1CCN(Cc2ccc(-c3noc(-c4nnn(-c5ccccc5F)c4-c4ccncc4)n3)cc2)CC1 [Example 128, 1-(4-{5-[1-(2-fluorophenyl)-5-pyridin-4-yl-1H-1,2,3-triazol-4-yl]-1,2,4-oxadiazol-3-yl}benzyl)piperidine-4-carboxylic acid]
4 | 4560 | 10 | CNCc1ccc(-c2noc(-c3nnn(-c4ccccc4F)c3-c3ccncc3)n2)cc1 [Example 129, 1-(4-{5-[1-(2-fluorophenyl)-5-pyridin-4-yl-1H-1,2,3-triazol-4-yl]-1,2,4-oxadiazol-3-yl}phenyl)-N-methylmethanamine]
5 | 835 | 13 | OC1CCN(Cc2ccc(-c3noc(-c4nnn(-c5ccccc5F)c4-c4ccncc4)n3)cc2)C1 (stereo not drawn) [Example 142, 1-(4-{5-[1-(2-fluorophenyl)-5-pyridin-4-yl-1H-1,2,3-triazol-4-yl]-1,2,4-oxadiazol-3-yl}benzyl)pyrrolidin-3-ol]

The next lines start with the molecule.

Row | SMILES | EC50 (S1P3 receptor) [nM] | EC50 (S1P1 receptor) [nM]
6 | Cc1cccc(-c2noc(-c3nnn(-c4ccccc4F)c3-c3ccncc3)n2)c1 [Example 104, 4-{1-(2-fluorophenyl)-4-[3-(3-methylphenyl)-1,2,4-oxadiazol-5-yl]-1H-1,2,3-triazol-5-yl}pyridine] | 660 | 14
7 | O=C(O)C1CN(Cc2ccc(-c3noc(-c4nnn(-c5ccccc5F)c4-c4ccncc4)n3)cc2)C1 [Example 113, 1-(4-{5-[1-(2-fluorophenyl)-5-pyridin-4-yl-1H-1,2,3-triazol-4-yl]-1,2,4-oxadiazol-3-yl}benzyl)azetidine-3-carboxylic acid] | 1370 | 2
8 | COCCNCc1ccc(-c2noc(-c3nnn(-c4ccccc4F)c3-c3ccncc3)n2)cc1 [Example 114, N-(4-{5-[1-(2-fluorophenyl)-5-pyridin-4-yl-1H-1,2,3-triazol-4-yl]-1,2,4-oxadiazol-3-yl}benzyl)-2-methoxyethanamine] | 6680 | 50
9 | Fc1ccccc1-n1nnc(-c2nc(-c3ccc4[nH]ncc4c3)no2)c1-c1ccncc1 [Example 116, 5-{5-[1-(2-fluorophenyl)-5-pyridin-4-yl-1H-1,2,3-triazol-4-yl]-1,2,4-oxadiazol-3-yl}-1H-indazole] | 164 | 4
